Measurements taken from paper PMC7156458, “Synthetic biology based construction of biological activity-related library of fungal decalin-containing diterpenoid pyrones” (Nature Communications, 2020).

Molecular target: Aβ42 (Homo sapiens, UniProt P05067)
Assay: Th-T (thioflavin-T) assay of Aβ42 aggregation
Format: biochemical
Settings: for Th-T fluorescence of Aβ42 (sheet Fig. 7a), mean of three wells: head suffix _50 (concentration 50); for Th-T assay plate reading, mean of three wells (Supplementary Fig. 47): source data, Ab alone and No Ab as controls; for Th-T fluorescence, mean of three wells: Supplementary Fig. 47 source data

Aβ42, sequence (P05067 672-713): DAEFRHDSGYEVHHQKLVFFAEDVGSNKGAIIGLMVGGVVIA

SMILES: C=C1CCC2C(C)(CCC=C(C)C)C(O)CCC2(C)C1Cc1c(OC)oc(CO)c(C(=O)OC)c1=O (stereo not drawn) [Compound 13]
- Th-T fluorescence of Aβ42 (sheet Fig. 7a), mean of three wells (reading M73): 0.4729
- Th-T fluorescence of Aβ42 (sheet Fig. 7a), mean of three wells (reading M74): 0.4696
- Th-T fluorescence of Aβ42 (sheet Fig. 7a), mean of three wells (reading M75): 0.4709
- Th-T fluorescence of Aβ42 (sheet Fig. 7a), mean of three wells (reading M76): 0.4704
- Th-T fluorescence of Aβ42 (sheet Fig. 7a), mean of three wells (reading M77): 0.4733
- Th-T fluorescence of Aβ42 (sheet Fig. 7a), mean of three wells (reading M78): 0.4716
- Th-T fluorescence of Aβ42 (sheet Fig. 7a), mean of three wells (reading M79): 0.4696
- Th-T fluorescence of Aβ42 (sheet Fig. 7a), mean of three wells (reading M80): 0.4702
- Th-T fluorescence of Aβ42 (sheet Fig. 7a), mean of three wells (reading M81): 0.4727
- Th-T fluorescence of Aβ42 (sheet Fig. 7a), mean of three wells (reading M82): 0.4723
- Th-T fluorescence of Aβ42 (sheet Fig. 7a), mean of three wells (reading M83): 0.4714
- Th-T fluorescence of Aβ42 (sheet Fig. 7a), mean of three wells (reading M84): 0.4716
- Th-T assay plate reading, mean of three wells (Supplementary Fig. 47) (measurement M1): 0.2585
- Th-T assay plate reading, mean of three wells (Supplementary Fig. 47) (measurement M2): 0.2393
- Th-T assay plate reading, mean of three wells (Supplementary Fig. 47) (measurement M3): 0.2328
- Th-T assay plate reading, mean of three wells (Supplementary Fig. 47) (measurement M4): 0.2253
- Th-T assay plate reading, mean of three wells (Supplementary Fig. 47) (measurement M5): 0.2121
- Th-T assay plate reading, mean of three wells (Supplementary Fig. 47) (measurement M6): 0.2004
- Th-T assay plate reading, mean of three wells (Supplementary Fig. 47) (measurement M7): 0.1938
- Th-T assay plate reading, mean of three wells (Supplementary Fig. 47) (measurement M8): 0.1852
- Th-T assay plate reading, mean of three wells (Supplementary Fig. 47) (measurement M9): 0.1809
- Th-T assay plate reading, mean of three wells (Supplementary Fig. 47) (measurement M10): 0.1743
- Th-T assay plate reading, mean of three wells (Supplementary Fig. 47) (measurement M11): 0.1726
- Th-T assay plate reading, mean of three wells (Supplementary Fig. 47) (measurement M12): 0.1685
- Th-T assay plate reading, mean of three wells (Supplementary Fig. 47) (measurement M13): 0.1699
- Th-T assay plate reading, mean of three wells (Supplementary Fig. 47) (measurement M14): 0.1695
- Th-T assay plate reading, mean of three wells (Supplementary Fig. 47) (measurement M15): 0.1669
- Th-T assay plate reading, mean of three wells (Supplementary Fig. 47) (measurement M16): 0.1721
- Th-T fluorescence, mean of three wells (Fig. 7a) (reading M107, compound at 10 (head suffix _10)): 1.546
- Th-T fluorescence, mean of three wells (Fig. 7a) (reading M107, compound at 20 (head suffix _20)): 1.033
- Th-T fluorescence, mean of three wells (Fig. 7a) (reading M107, compound at 50 (head suffix _50)): 0.4755
- Th-T fluorescence, mean of three wells (Fig. 7a) (reading M108, compound at 10 (head suffix _10)): 1.544
- Th-T fluorescence, mean of three wells (Fig. 7a) (reading M108, compound at 20 (head suffix _20)): 1.036
- Th-T fluorescence, mean of three wells (Fig. 7a) (reading M108, compound at 50 (head suffix _50)): 0.4722
- Th-T fluorescence, mean of three wells (Fig. 7a) (reading M109, compound at 10 (head suffix _10)): 1.548
- Th-T fluorescence, mean of three wells (Fig. 7a) (reading M109, compound at 20 (head suffix _20)): 1.038
- Th-T fluorescence, mean of three wells (Fig. 7a) (reading M109, compound at 50 (head suffix _50)): 0.476
- Th-T fluorescence, mean of three wells (Fig. 7a) (reading M110, compound at 10 (head suffix _10)): 1.549
- Th-T fluorescence, mean of three wells (Fig. 7a) (reading M110, compound at 20 (head suffix _20)): 1.043
- Th-T fluorescence, mean of three wells (Fig. 7a) (reading M110, compound at 50 (head suffix _50)): 0.4785
- Th-T fluorescence, mean of three wells (Fig. 7a) (reading M111, compound at 10 (head suffix _10)): 1.553
- Th-T fluorescence, mean of three wells (Fig. 7a) (reading M111, compound at 20 (head suffix _20)): 1.041
- Th-T fluorescence, mean of three wells (Fig. 7a) (reading M111, compound at 50 (head suffix _50)): 0.4751
- Th-T fluorescence, mean of three wells (Fig. 7a) (reading M112, compound at 10 (head suffix _10)): 1.549
- Th-T fluorescence, mean of three wells (Fig. 7a) (reading M112, compound at 20 (head suffix _20)): 1.035
- Th-T fluorescence, mean of three wells (Fig. 7a) (reading M112, compound at 50 (head suffix _50)): 0.4724
- Th-T fluorescence, mean of three wells (Fig. 7a) (reading M113, compound at 10 (head suffix _10)): 1.549
- Th-T fluorescence, mean of three wells (Fig. 7a) (reading M113, compound at 20 (head suffix _20)): 1.03
- Th-T fluorescence, mean of three wells (Fig. 7a) (reading M113, compound at 50 (head suffix _50)): 0.473
- Th-T fluorescence, mean of three wells (Fig. 7a) (reading M114, compound at 10 (head suffix _10)): 1.5404
- Th-T fluorescence, mean of three wells (Fig. 7a) (reading M114, compound at 20 (head suffix _20)): 1.03
- Th-T fluorescence, mean of three wells (Fig. 7a) (reading M114, compound at 50 (head suffix _50)): 0.4728
- Th-T fluorescence, mean of three wells (Fig. 7a) (reading M115, compound at 10 (head suffix _10)): 1.549
- Th-T fluorescence, mean of three wells (Fig. 7a) (reading M115, compound at 20 (head suffix _20)): 1.033
- Th-T fluorescence, mean of three wells (Fig. 7a) (reading M115, compound at 50 (head suffix _50)): 0.477
- Th-T fluorescence, mean of three wells (Fig. 7a) (reading M116, compound at 10 (head suffix _10)): 1.546
- Th-T fluorescence, mean of three wells (Fig. 7a) (reading M116, compound at 20 (head suffix _20)): 1.033
- Th-T fluorescence, mean of three wells (Fig. 7a) (reading M116, compound at 50 (head suffix _50)): 0.4778
- Th-T fluorescence, mean of three wells (Fig. 7a) (reading M117, compound at 10 (head suffix _10)): 1.5424
- Th-T fluorescence, mean of three wells (Fig. 7a) (reading M117, compound at 20 (head suffix _20)): 1.029
- Th-T fluorescence, mean of three wells (Fig. 7a) (reading M117, compound at 50 (head suffix _50)): 0.4747
- Th-T fluorescence, mean of three wells (Fig. 7a) (reading M118, compound at 10 (head suffix _10)): 1.549
- Th-T fluorescence, mean of three wells (Fig. 7a) (reading M118, compound at 20 (head suffix _20)): 1.031
- Th-T fluorescence, mean of three wells (Fig. 7a) (reading M118, compound at 50 (head suffix _50)): 0.4759
- Th-T fluorescence, mean of three wells (Fig. 7a) (reading M119, compound at 10 (head suffix _10)): 1.551
- Th-T fluorescence, mean of three wells (Fig. 7a) (reading M119, compound at 20 (head suffix _20)): 1.035
- Th-T fluorescence, mean of three wells (Fig. 7a) (reading M119, compound at 50 (head suffix _50)): 0.4763
- Th-T fluorescence, mean of three wells (Fig. 7a) (reading M120, compound at 10 (head suffix _10)): 1.5465
- Th-T fluorescence, mean of three wells (Fig. 7a) (reading M120, compound at 20 (head suffix _20)): 1.04
- Th-T fluorescence, mean of three wells (Fig. 7a) (reading M120, compound at 50 (head suffix _50)): 0.4773
- Th-T fluorescence, mean of three wells (Fig. 7a) (reading M121, compound at 10 (head suffix _10)): 1.546
- Th-T fluorescence, mean of three wells (Fig. 7a) (reading M121, compound at 20 (head suffix _20)): 1.029
- Th-T fluorescence, mean of three wells (Fig. 7a) (reading M121, compound at 50 (head suffix _50)): 0.4753
- Th-T fluorescence, mean of three wells (Fig. 7a) (reading M122, compound at 10 (head suffix _10)): 1.544
- Th-T fluorescence, mean of three wells (Fig. 7a) (reading M122, compound at 20 (head suffix _20)): 1.028
- Th-T fluorescence, mean of three wells (Fig. 7a) (reading M122, compound at 50 (head suffix _50)): 0.4755
- Th-T fluorescence, mean of three wells (Fig. 7a) (reading M123, compound at 10 (head suffix _10)): 1.5409
- Th-T fluorescence, mean of three wells (Fig. 7a) (reading M123, compound at 20 (head suffix _20)): 1.032
- Th-T fluorescence, mean of three wells (Fig. 7a) (reading M123, compound at 50 (head suffix _50)): 0.4791
- Th-T fluorescence, mean of three wells (Fig. 7a) (reading M124, compound at 10 (head suffix _10)): 1.548
- Th-T fluorescence, mean of three wells (Fig. 7a) (reading M124, compound at 20 (head suffix _20)): 1.037
- Th-T fluorescence, mean of three wells (Fig. 7a) (reading M124, compound at 50 (head suffix _50)): 0.4785
- Th-T fluorescence, mean of three wells (Fig. 7a) (reading M125, compound at 10 (head suffix _10)): 1.541
- Th-T fluorescence, mean of three wells (Fig. 7a) (reading M125, compound at 20 (head suffix _20)): 1.031
- Th-T fluorescence, mean of three wells (Fig. 7a) (reading M125, compound at 50 (head suffix _50)): 0.4776
- Th-T fluorescence, mean of three wells (Fig. 7a) (reading M126, compound at 10 (head suffix _10)): 1.541
- Th-T fluorescence, mean of three wells (Fig. 7a) (reading M126, compound at 20 (head suffix _20)): 1.031
- Th-T fluorescence, mean of three wells (Fig. 7a) (reading M126, compound at 50 (head suffix _50)): 0.4736
- Th-T fluorescence, mean of three wells (Fig. 7a) (reading M127, compound at 10 (head suffix _10)): 1.546
- Th-T fluorescence, mean of three wells (Fig. 7a) (reading M127, compound at 20 (head suffix _20)): 1.033
- Th-T fluorescence, mean of three wells (Fig. 7a) (reading M127, compound at 50 (head suffix _50)): 0.4763
- Th-T fluorescence, mean of three wells (Fig. 7a) (reading M128, compound at 10 (head suffix _10)): 1.55
- Th-T fluorescence, mean of three wells (Fig. 7a) (reading M128, compound at 20 (head suffix _20)): 1.029
- Th-T fluorescence, mean of three wells (Fig. 7a) (reading M128, compound at 50 (head suffix _50)): 0.4748
- Th-T fluorescence, mean of three wells (time-course reading M97): 1.044
- Th-T fluorescence, mean of three wells (time-course reading M98): 1.046
- Th-T fluorescence, mean of three wells (time-course reading M99): 1.04
- Th-T fluorescence, mean of three wells (time-course reading M100): 1.04
- Th-T fluorescence, mean of three wells (time-course reading M101): 1.043
- Th-T fluorescence, mean of three wells (time-course reading M102): 1.042
- Th-T fluorescence, mean of three wells (time-course reading M103): 1.041
- Th-T fluorescence, mean of three wells (time-course reading M104): 1.042
- Th-T fluorescence, mean of three wells (time-course reading M105): 1.041
- Th-T fluorescence, mean of three wells (time-course reading M106): 1.044
- Th-T fluorescence, mean of three wells (time-course reading M107): 1.043
- Th-T fluorescence, mean of three wells (time-course reading M108): 1.038
- Th-T fluorescence, mean of three wells (time-course reading M109): 1.039
- Th-T fluorescence, mean of three wells (time-course reading M110): 1.044
- Th-T fluorescence, mean of three wells (time-course reading M111): 1.042
- Th-T fluorescence, mean of three wells (time-course reading M112): 1.039
- Th-T fluorescence, mean of three wells (time-course reading M113): 1.042
- Th-T fluorescence, mean of three wells (time-course reading M114): 1.037
- Th-T fluorescence, mean of three wells (time-course reading M115): 1.041
- Th-T fluorescence, mean of three wells (time-course reading M116): 1.037
